# Reference: ChEMBL document CHEMBL1201862, “PubChem BioAssay data set” (2004)
#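 Interpolation was linear, between the two tested concentrations surrounding the appropriate level; five concentrations were tested over 48 hours in 96-well plates. GI50 = concentration required for 50% inhibition of growth.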 Calls of active or inactive are those of the source. Cut-off read from the data, not from the text of the source: active = GI50 up to about 1.1 µM and inactive = higher.
# What was measured:
# Test in all cases: inhibition of tumour cell growth, NCI panel, 48 h
# [1] = tested on: K562
# [2] = tested on: SK-OV-3
# [3] = tested on: COLO 205
# [4] = tested on: OVCAR-8
# [5] = tested on: OVCAR-5
# [6] = tested on: SF-268
# [7] = tested on: EKVX
# [8] = tested on: OVCAR-3
# [9] = tested on: OVCAR-4
# [10] = tested on: A549
# [11] = tested on: A498
# [12] = tested on: SK-MEL-5
# [13] = tested on: TK-10
# [14] = tested on: HCC 2998
# [15] = tested on: HOP-62
# [16] = tested on: U-251
# [17] = tested on: NCI-H226
# [18] = tested on: SN12C
# [19] = tested on: SK-MEL-2
SMILES,GI50 [1],GI50 [2],GI50 [3],GI50 [4],GI50 [5],GI50 [6],GI50 [7],GI50 [8],GI50 [9],GI50 [10],GI50 [11],GI50 [12],GI50 [13],GI50 [14],GI50 [15],GI50 [16],GI50 [17],GI50 [18],GI50 [19]
OCC12C3C4C1C1C2C3C41CO (centres undefined),> 100 µM (inactive),> 100 µM (inactive),> 100 µM (inactive),> 100 µM (inactive),> 100 µM (inactive),> 100 µM (inactive),> 100 µM (inactive),> 100 µM (inactive),> 100 µM (inactive),> 100 µM (inactive),> 100 µM (inactive),> 100 µM (inactive),> 100 µM (inactive),> 100 µM (inactive),> 100 µM (inactive),> 100 µM (inactive),> 100 µM (inactive),> 100 µM (inactive),–
NC1CCC[C@H]1O (some centres undefined),> 100 µM (inactive),> 100 µM (inactive),> 100 µM (inactive),> 100 µM (inactive),–,> 100 µM (inactive),> 100 µM (inactive),> 100 µM (inactive),> 100 µM (inactive),> 100 µM (inactive),> 100 µM (inactive),> 100 µM (inactive),> 100 µM (inactive),> 100 µM (inactive),> 100 µM (inactive),> 100 µM (inactive),> 100 µM (inactive),> 100 µM (inactive),> 100 µM (inactive)
CN1C(=O)C2C=CC1C1CCC2N(C)C1=O (centres undefined),> 100 µM (inactive),> 100 µM (inactive),> 100 µM (inactive),> 100 µM (inactive),> 100 µM (inactive),> 100 µM (inactive),> 100 µM (inactive),> 100 µM (inactive),> 100 µM (inactive),> 100 µM (inactive),> 100 µM (inactive),> 100 µM (inactive),> 100 µM (inactive),> 100 µM (inactive),–,> 100 µM (inactive),> 100 µM (inactive),> 100 µM (inactive),> 100 µM (inactive)
O=C(CCc1cc(-c2ccco2)n(-c2ccc([N+](=O)[O-])cc2[N+](=O)[O-])n1)Nc1ccccc1,45.5 µM (inactive),> 100 µM (inactive),> 100 µM (inactive),> 100 µM (inactive),> 100 µM (inactive),> 100 µM (inactive),> 100 µM (inactive),–,> 100 µM (inactive),> 100 µM (inactive),> 100 µM (inactive),> 100 µM (inactive),–,> 100 µM (inactive),> 100 µM (inactive),> 100 µM (inactive),> 100 µM (inactive),> 100 µM (inactive),> 100 µM (inactive)
Cc1ccc(S(=O)(=O)N2CCN(C=S)CC2)cc1,> 100 µM (inactive),> 100 µM (inactive),> 100 µM (inactive),> 100 µM (inactive),> 100 µM (inactive),> 100 µM (inactive),> 100 µM (inactive),> 100 µM (inactive),–,> 100 µM (inactive),> 100 µM (inactive),> 100 µM (inactive),> 100 µM (inactive),> 100 µM (inactive),> 100 µM (inactive),> 100 µM (inactive),–,> 100 µM (inactive),> 100 µM (inactive)
COc1cccc2c1C(=O)c1c(O)c3c(c(O)c1C2=O)C[C@@](O)(C(=O)CO)CC3OC1CC(NCCOCC(OC(C)=O)OC(C)=O)C(O)C(C)O1 (some centres undefined),< 0.01 µM (active),< 0.01 µM (active),–,< 0.01 µM (active),< 0.01 µM (active),< 0.01 µM (active),< 0.01 µM (active),< 0.01 µM (active),< 0.01 µM (active),< 0.01 µM (active),< 0.01 µM (active),< 0.01 µM (active),< 0.01 µM (active),< 0.01 µM (active),0.00382 µM (active),0.00925 µM (active),< 0.01 µM (active),< 0.01 µM (active),< 0.01 µM (active)
O=C1CCC2(c3ccc(F)cc3)Nc3ncccc3N12 (centres undefined),> 100 µM (inactive),–,> 100 µM (inactive),> 100 µM (inactive),> 100 µM (inactive),> 100 µM (inactive),> 100 µM (inactive),> 100 µM (inactive),> 100 µM (inactive),> 100 µM (inactive),> 100 µM (inactive),> 100 µM (inactive),> 100 µM (inactive),> 100 µM (inactive),> 100 µM (inactive),> 100 µM (inactive),> 100 µM (inactive),> 100 µM (inactive),> 100 µM (inactive)
COC(=O)CCC(=O)Nc1cccc(C(F)(F)F)c1,> 100 µM (inactive),> 100 µM (inactive),> 100 µM (inactive),> 100 µM (inactive),> 100 µM (inactive),> 100 µM (inactive),> 100 µM (inactive),> 100 µM (inactive),> 100 µM (inactive),> 100 µM (inactive),> 100 µM (inactive),> 100 µM (inactive),> 100 µM (inactive),> 100 µM (inactive),> 100 µM (inactive),> 100 µM (inactive),–,> 100 µM (inactive),> 100 µM (inactive)
CN1CCc2c1nc(-c1ccc(Cl)cc1)c1c2N(C)CC1,9.29 µM (inactive),21.2 µM (inactive),2.07 µM (inactive),25.5 µM (inactive),24.1 µM (inactive),21.5 µM (inactive),35.1 µM (inactive),1.51 µM (inactive),28.4 µM (inactive),18.3 µM (inactive),19.7 µM (inactive),10.5 µM (inactive),29.2 µM (inactive),19.4 µM (inactive),11.2 µM (inactive),3.74 µM (inactive),–,23.1 µM (inactive),> 100 µM (inactive)
Cc1cc(=O)n(-c2cc3cccccc-3n2)[nH]1,2.74 µM (inactive),6.31 µM (inactive),14.4 µM (inactive),5.53 µM (inactive),15.5 µM (inactive),–,12.5 µM (inactive),3.05 µM (inactive),–,12.4 µM (inactive),16.8 µM (inactive),2.05 µM (inactive),7.31 µM (inactive),12.1 µM (inactive),4.34 µM (inactive),2.04 µM (inactive),12.1 µM (inactive),5.74 µM (inactive),–
CCOC(=O)NC(=O)c1cn(CCOC(=O)NCCCCCCNC(=O)OCCn2cc(C(=O)NC(=O)OCC)c(=O)[nH]c2=O)c(=O)[nH]c1=O,> 100 µM (inactive),> 100 µM (inactive),> 100 µM (inactive),> 100 µM (inactive),–,> 100 µM (inactive),> 100 µM (inactive),> 100 µM (inactive),> 100 µM (inactive),> 100 µM (inactive),> 100 µM (inactive),> 100 µM (inactive),–,> 100 µM (inactive),> 100 µM (inactive),> 100 µM (inactive),> 100 µM (inactive),> 100 µM (inactive),> 100 µM (inactive)
O=C(CC1Sc2ccccc2NC1=O)Nc1cccc(Cl)c1 (centres undefined),51.8 µM (inactive),–,–,26.2 µM (inactive),> 100 µM (inactive),34.9 µM (inactive),22.5 µM (inactive),27 µM (inactive),44.8 µM (inactive),43.8 µM (inactive),28.6 µM (inactive),40.1 µM (inactive),41.9 µM (inactive),89.3 µM (inactive),–,30.4 µM (inactive),26.8 µM (inactive),48.2 µM (inactive),39 µM (inactive)
Cc1cc(C)c(C(=O)OC(c2ccccc2)C(c2ccccc2)N2CCOCC2)c(C)c1 (centres undefined),> 100 µM (inactive),> 100 µM (inactive),> 100 µM (inactive),–,–,> 100 µM (inactive),> 100 µM (inactive),> 100 µM (inactive),–,> 100 µM (inactive),> 100 µM (inactive),–,> 100 µM (inactive),> 100 µM (inactive),> 100 µM (inactive),> 100 µM (inactive),> 100 µM (inactive),> 100 µM (inactive),> 100 µM (inactive)
S=C1SCC2CCCN12 (centres undefined),> 100 µM (inactive),> 100 µM (inactive),> 100 µM (inactive),> 100 µM (inactive),> 100 µM (inactive),> 100 µM (inactive),–,–,> 100 µM (inactive),> 100 µM (inactive),> 100 µM (inactive),> 100 µM (inactive),> 100 µM (inactive),> 100 µM (inactive),> 100 µM (inactive),> 100 µM (inactive),–,> 100 µM (inactive),> 100 µM (inactive)
O=C1/C(=C/c2ccc(Cl)cc2)CCC1CCN1CCOCC1 (centres undefined),25.8 µM (inactive),–,–,> 100 µM (inactive),> 100 µM (inactive),54.3 µM (inactive),> 100 µM (inactive),59.3 µM (inactive),37.8 µM (inactive),> 100 µM (inactive),61.1 µM (inactive),55.5 µM (inactive),> 100 µM (inactive),46.9 µM (inactive),72.1 µM (inactive),–,> 100 µM (inactive),72.1 µM (inactive),> 100 µM (inactive)
O=c1c2ccccc2[nH]c2c(O)ccc(O)c12,17.5 µM (inactive),25.7 µM (inactive),> 10 µM (inactive),17.9 µM (inactive),> 76.9 µM (inactive),25.4 µM (inactive),> 41.7 µM (inactive),16.6 µM (inactive),3.39 µM (inactive),36.2 µM (inactive),38.3 µM (inactive),–,26.3 µM (inactive),> 100 µM (inactive),> 100 µM (inactive),15.1 µM (inactive),25.6 µM (inactive),14.2 µM (inactive),29.4 µM (inactive)
